This note sets out measurements from ChEMBL document CHEMBL3045799, “Effect of Candidatus Liberibacter asiaticus infection on susceptibility of Asian citrus psyllid, Diaphorina citri, to selected insecticides” (2011).

Format in all cases: functional
Assay [1] concerns Diaphorina citri. Kind of assay: Insecticidal activity against Diaphorina citri infected with Candidatus Liberibacter asiaticus assessed as mortality after 48 hr.
Assay [2] relates to Diaphorina citri. Kind of assay: Selectivity ratio of LC50 for Diaphorina citri to LC50 for Diaphorina citri infected with Candidatus Liberibacter asiaticus.
The test system of assay [3] is Diaphorina citri. Nature of the assay: Insecticidal activity against Diaphorina citri assessed as mortality after 48 hr.

In the case of `CCO[C@@H]1[C@@H](OC)[C@H](C)O[C@@H](O[C@@H]2C[C@H]3CC[C@@H]4[C@@H](C=C5C(=O)[C@H](C)[C@@H](O[C@H]6CC[C@H](N(C)C)[C@@H](C)O6)CCC[C@H](CC)OC(=O)C[C@H]54)[C@@H]3C2)[C@@H]1OC.CCO[C@@H]1[C@@H](OC)[C@H](C)O[C@@H](O[C@H]2C[C@H]3[C@@H]4C=C5C(=O)[C@H](C)[C@@H](O[C@H]6CC[C@H](N(C)C)[C@@H](C)O6)CCC[C@H](CC)OC(=O)C[C@H]5[C@@H]4C=C(C)[C@@H]3C2)[C@@H]1OC`, the LC50 with Diaphorina citri [1] amounted to 0.2 mgAi/L; in the assay on Diaphorina citri [3] it was 0.48 mgAi/L. Also, in the assay with Diaphorina citri [2], the RatioLC50 amounted to 1.2.
Regarding `CCOP(=S)(OCC)Oc1nc(Cl)c(Cl)cc1Cl` [CHLORPYRIFOS], the LC50 is listed as 0.28 mgAi/L with Diaphorina citri [1] and 0.78 mgAi/L in the assay with Diaphorina citri [3]. Moreover, the RatioLC50 with Diaphorina citri [2] was determined as 2.8.
In the same order, the values of `CC1(C)C(C(=O)OC(C#N)c2cccc(Oc3ccccc3)c2)C1(C)C` (configuration not stated) [FENPROPATHRIN] are 0.05 mgAi/L, 0.06 mgAi/L and 1.2.
In the same order, the values of `O=[N+]([O-])/N=C1\NCCN1Cc1ccc(Cl)nc1` [IMIDACLOPRID] are 0.15 mgAi/L, 0.47 mgAi/L and 3.1.
